The values below come from patent US11958816B1, “N′-({[(5-phenyl-1,3,4-oxadiazol-2-yl)sulfanyl]acetyl}oxy)benzenecarboximidamide as an antimicrobial compound” (KING FAISAL UNIVERSITY, priority 2023, dated 2024).

Type in all cases: cell-based
The subject of assay [1] is Chrysosporium keratinophilum. Description: Agar plate disc-diffusion, antifungal activity (inhibition zone). Conditions: Sabouraud's dextrose agar, 37° C., 72 h, DMSO zone subtracted. On the procedure: (§1) The agar plate disc-diffusion method was applied. […] The discs were then placed onto the surface of agar plates (nutrient agar for bacteria and Sabouraud's dextrose agar for fungi) seeded with the test organism. Each plate contained 15 mL of the agar medium, previously seeded with 0.2 mL of the broth culture of each organism pregrown for 18 hours. The plates were incubated at 37° C. for 48 h, and 72 h for fungi. The inhibition zones were measured in mm. Discs impregnated with DMSO were used as a control, and its inhibition zone was subtracted from the tested compound actual inhibition zone.
On the technique in general: A growth-free zone around the sample is the usual read-out of agar diffusion tests.

A further assay concerns Aspergillus flavus. Described as above. Conditions: Sabouraud's dextrose agar, 37° C., 72 h, DMSO zone subtracted. On the procedure:
as §1

The test system of a further assay is Staphylococcus aureus. Description: Agar plate disc-diffusion, antibacterial activity (inhibition zone). The following applies: nutrient agar, 37° C., 48 h, DMSO zone subtracted. On the procedure:
as §1

For a further assay, the system named is Pseudomonas aeruginosa. The assay is described as above. Conditions: nutrient agar, 37° C., 48 h, DMSO zone subtracted. The method, then:
as §1

The next assay relates to Bacillus cereus. The assay is described as above. Conditions: nutrient agar, 37° C., 48 h, DMSO zone subtracted. The method, then: as §1
The next assay deals with Escherichia coli. The description is as above. The following applies: nutrient agar, 37° C., 48 h, DMSO zone subtracted. The method, then:
as §1

Where [2] appears, read: A = concentration of comp. = 10,000 μL.
The mark [3] stands for this setting: B = concentration of comp. = 30,000 μL.
[4] abbreviates: C = concentration of comp. = 50,000 μL.

Take `N/C(=N\OC(=O)CSc1nnc(-c2ccccc2)o1)c1ccccc1` [Compound 3, N′-({[(5-phenyl-1,3,4-oxadiazol-2-yl)sulfanyl]acetyl}oxy)benzenecarboximidamide]: the “inhibition zone, Chrysosporium keratinophilum, A” value in assay [1] (setting [2]) was determined as 23 mm. In assay [1] (setting [3]), the “inhibition zone, Chrysosporium keratinophilum, B” value was found to be 26 mm. For the same compound, in assay [1] (setting [4]), the “inhibition zone, Chrysosporium keratinophilum, C” value is reported as 40 mm. In the assay with Aspergillus flavus (setting [2]), the “inhibition zone, Aspergillus flavus, A” value came to 24 mm. For the same compound, the “inhibition zone, Aspergillus flavus, B” value with Aspergillus flavus (setting [3]) was 29 mm. For the same compound, in the assay on Aspergillus flavus (setting [4]), the “inhibition zone, Aspergillus flavus, C” value was found to be 41 mm. Also, the “inhibition zone, Staphylococcus aureus, A” value in the assay on Staphylococcus aureus (setting [2]) is listed as 24 mm. Further, the “inhibition zone, Staphylococcus aureus, B” value in the assay with Staphylococcus aureus (setting [3]) stood at 28 mm. Also, the “inhibition zone, Staphylococcus aureus, C” value in the assay on Staphylococcus aureus (setting [4]) turned out to be 37 mm. For the same compound, the “inhibition zone, Pseudomonas aeruginosa, A” value in the assay with Pseudomonas aeruginosa (setting [2]) is listed as 17 mm. In addition, the “inhibition zone, Pseudomonas aeruginosa, B” value with Pseudomonas aeruginosa (setting [3]) was 24 mm. The “inhibition zone, Pseudomonas aeruginosa, C” value in the assay on Pseudomonas aeruginosa (setting [4]) is 36 mm. Further, the “inhibition zone, Bacillus Cereus, A” value in the assay with Bacillus cereus (setting [2]) was 23 mm. Further, the “inhibition zone, Bacillus Cereus, B” value in the assay on Bacillus cereus (setting [3]) worked out at 28 mm. Also, in the assay with Bacillus cereus (setting [4]), the “inhibition zone, Bacillus Cereus, C” value came out at 40 mm. Moreover, the “inhibition zone, Escherichia coli, A” value with Escherichia coli (setting [2]) is 25 mm. For the same compound, the “inhibition zone, Escherichia coli, B” value in the assay with Escherichia coli (setting [3]) was 37 mm. Further, the “inhibition zone, Escherichia coli, C” value with Escherichia coli (setting [4]) is recorded as 45 mm.
